Experiments:
Syk = Syk (Homo sapiens (Human), UniProt P43405); assay: Syk enzyme inhibition (FRET, Z-LYTE); type: biochemical
Method in brief: (§1)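 Enzyme (c-Src 3000 ng/mL, Syk 2000 ng/mL, as added solutions) was preincubated with compound for 2 hr at RT, then FRET peptide and ATP (added solution 800 μM for c-Src, 60 μM for Syk) for 1 hr. Protease development 1 hr; coumarin/fluorescein emission ratio gave % inhibition, IC50 from concentration-response.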

GSK 3α = GSK 3α (Homo sapiens (Human), UniProt P49840); assay: GSK 3α enzyme inhibition (FRET, Z-LYTE, Method 2); type: biochemical; settings: read-out: IC50 Values for Enzyme Inhibition, GSK3α
GSK 3α, sequence (P49840 whole entry): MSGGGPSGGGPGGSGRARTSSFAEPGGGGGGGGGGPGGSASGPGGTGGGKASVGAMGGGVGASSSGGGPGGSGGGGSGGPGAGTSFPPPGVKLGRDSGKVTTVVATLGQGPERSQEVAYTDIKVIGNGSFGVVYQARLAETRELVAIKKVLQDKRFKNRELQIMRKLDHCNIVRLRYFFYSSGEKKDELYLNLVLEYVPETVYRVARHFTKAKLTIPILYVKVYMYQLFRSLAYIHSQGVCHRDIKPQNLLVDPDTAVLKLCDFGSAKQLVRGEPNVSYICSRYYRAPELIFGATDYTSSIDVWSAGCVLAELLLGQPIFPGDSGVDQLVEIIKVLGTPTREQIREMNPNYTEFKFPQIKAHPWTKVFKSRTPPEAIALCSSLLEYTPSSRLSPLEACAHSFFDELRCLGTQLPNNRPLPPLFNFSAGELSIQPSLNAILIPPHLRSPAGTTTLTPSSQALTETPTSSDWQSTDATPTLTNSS
Method in brief: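 Phosphorylation of a dual-labelled synthetic peptide by human GSK3α is read as a coumarin/fluorescein ratio after protease development. Compound stocks run 4 to 0.004 μg/mL, and ATP stock is 40 μM.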

d-U937 cells = assay: Accumulation of β catenin in d-U937 cells (assay m); type: cell-based, human; settings: percentage relative to Reference Compound at 1 μg/mL
Method in brief: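 PMA-differentiated (100 ng/mL, 48–72 hr) human U937 macrophage-type cells treated with test compound or vehicle for 18 hr. β-catenin measured by in-cell ELISA (anti-β-catenin, HRP secondary, TMB, OD450–655). Signal corrected for cell number by dividing by crystal violet OD595.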

HT29 cells = assay: IL-1β-induced IL-8 release in HT29 cells (assay d); type: cell-based; settings: Homo sapiens, HT-29; IL-1β-stimulated HT29 cells; read-out: IC50 Values for Inhibition of Cytokine Release, HT29 cells IL-8
Method: HT29 cells, a human colon adenocarcinoma cell line, are plated in a 96 well plate (24 hrs) and pre-treated with compounds at the desired concentration for 2 hours before addition of 5 ng/mL of IL-1β (Abcam) for 24 hours. Supernatants are harvested for IL-8 quantification by Sandwich ELISA (Duo-set, R&D System). The IC50 is determined from the dose response curve.

[1] = target: p38 MAPKα isoform (MAPK14) (Homo sapiens (Human), UniProt Q16539); assay: p38 MAPKα enzyme inhibition (FRET, Z-LYTE, Method 2); type: biochemical
p38 MAPKα isoform (MAPK14), sequence (Q16539 whole entry, canonical isoform): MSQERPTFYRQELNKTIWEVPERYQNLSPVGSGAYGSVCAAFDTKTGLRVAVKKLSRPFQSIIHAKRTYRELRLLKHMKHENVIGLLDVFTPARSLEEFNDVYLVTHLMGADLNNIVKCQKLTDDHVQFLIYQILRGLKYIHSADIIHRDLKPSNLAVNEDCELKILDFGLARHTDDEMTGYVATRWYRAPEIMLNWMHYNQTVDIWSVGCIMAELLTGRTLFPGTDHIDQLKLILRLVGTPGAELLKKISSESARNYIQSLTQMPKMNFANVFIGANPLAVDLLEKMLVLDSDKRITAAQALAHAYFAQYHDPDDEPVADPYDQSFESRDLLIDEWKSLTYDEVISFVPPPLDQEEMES
Method in brief: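 Z-LYTE FRET: p38 MAPKα (80 ng/mL for Method 1, 200 ng/mL for Method 2, pre-dilution) preincubated 2 hr RT with compound (4–0.004 μg/mL solutions), activity read via MAPKAP-K2 phosphorylation after 1 hr RT and 1 hr protease development. Coumarin/fluorescein ratio gives phosphorylation; % inhibition versus uninhibited control, IC50 from concentration-response curve.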

PBMCs [2] = assay: LPS-induced IL-8 release in PBMC cells (assay b); type: cell-based, human; settings: Homo sapiens, PBMC; LPS-stimulated PBMCs; read-out: IC50 Values for Inhibition of Cytokine Release, PBMCs IL-8
Method in brief: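 Human PBMCs from healthy donors, isolated by density gradient, were pretreated with compound for 2 h and then stimulated with 1 ng/mL LPS (E. coli 0111:B4) for 24 h at 37° C, 5% CO2. Supernatant IL-8 and TNFα were measured by sandwich ELISA, and IC50 was taken from the dose-response curve.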

c-Src = c-Src (Homo sapiens (Human), UniProt P12931); assay: c-Src enzyme inhibition (FRET, Z-LYTE); type: biochemical
c-Src, sequence (P12931 whole entry, looked up): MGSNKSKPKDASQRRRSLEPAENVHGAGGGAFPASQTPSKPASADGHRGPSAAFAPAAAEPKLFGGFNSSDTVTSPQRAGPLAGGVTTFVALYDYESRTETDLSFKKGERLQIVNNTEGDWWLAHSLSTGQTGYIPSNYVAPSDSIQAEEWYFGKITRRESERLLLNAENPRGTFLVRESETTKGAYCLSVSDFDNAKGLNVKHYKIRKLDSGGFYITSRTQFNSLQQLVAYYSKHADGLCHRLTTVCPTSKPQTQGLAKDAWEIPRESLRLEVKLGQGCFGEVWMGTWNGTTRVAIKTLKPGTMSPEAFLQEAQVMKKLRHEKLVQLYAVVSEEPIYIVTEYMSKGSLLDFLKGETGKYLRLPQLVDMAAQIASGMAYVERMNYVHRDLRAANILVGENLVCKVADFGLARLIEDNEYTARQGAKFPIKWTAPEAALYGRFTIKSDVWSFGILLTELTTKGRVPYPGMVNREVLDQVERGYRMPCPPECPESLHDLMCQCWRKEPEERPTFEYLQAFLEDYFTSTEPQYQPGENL
Method in brief: as §1

PBMCs [3] = assay: Cell mitosis assay in PBMCs (assay g); type: cell-based; settings: Homo sapiens, PBMC, test compound 5 μg/mL
Method in brief: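 Human PBMCs from healthy donors, stimulated with 2% PHA for 48 hr, then exposed to test compounds for 20 hr, with demecolcine (0.1 μg/mL) added 2 hr before harvest. Cells fixed/permeabilised, stained for phospho-histone 3 and propidium iodide, and read by flow cytometry gated on lymphocytes. % mitosis inhibition vs 0.5% DMSO vehicle.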

PBMCs [4] = assay: IL-2 release in CD3/CD28 stimulated PBMC cells (assay c); type: cell-based; settings: Homo sapiens, read-out: IC50 Values for Inhibition of Cytokine Release, PBMCs IL-2
Method in brief: (§2)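 Healthy-donor PBMCs, isolated by density gradient, were plated in wells pre-coated with anti-CD3 (0.3 μg/mL) and anti-CD28 (3 μg/mL) antibodies, then exposed to compound for 3 days under normal culture conditions. IL-2 and IFN gamma in supernatants were measured by sandwich ELISA; IC50 taken from the dose-response curve.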

PBMCs [5] = assay: IFN gamma release in CD3/CD28 stimulated PBMC cells (assay c); type: cell-based; settings: Homo sapiens, read-out: IC50 Values for Inhibition of Cytokine Release, PBMCs IFNγ
Method in brief: as §2

| IC50 (Syk) [nM] | IC50 (GSK 3α) [nM] | IC50 (HT29 cells) [nM] | IC50 [1] [nM] | IC50 (c-Src) [nM] | SMILES | % β-catenin induction (d-U937 cells; test compound 1 μg/mL) [%] | % β-catenin induction (d-U937 cells; test compound 5 μg/mL) [%] | % β-catenin induction (d-U937 cells; test compound 10 μg/mL) [%] | IC50 (PBMCs [2]) [nM] | inhibition at 5 µg/mL (PBMCs [3]) [%] | IC50 (PBMCs [4]) [nM] | IC50 (PBMCs [5]) [nM] |
| --- | --- | --- | --- | --- | --- | --- | --- | --- | --- | --- | --- | --- |
| 103 | 844 | 3.6 | 52 | 16 | COCCOCCOCCOc1cc(Nc2nccc(Oc3ccc(NC(=O)Nc4cc(C(C)(C)C)cc(CC(N)=O)c4OC)c4ccccc34)n2)cc(OC)c1 [15(c), 2-(5-(tert-butyl)-2-methoxy-3-(3-(4-((2-((3-methoxy-5-(2-(2-(2-methoxyethoxy)ethoxy)-ethoxy)phenyl)amino)pyrimidin-4-yl)oxy)naphthalen-1-yl)ureido)phenyl)acetamide] | 5.5 | 36.0 | 33.0 | 1.6 |  |  |  |
| 54 | 3320 | 25.7 | 119 | 74 | COc1c(NC(=O)Nc2ccc(Oc3ccnc(Nc4ccccc4)c3)c3ccccc23)cc(C(C)(C)C)cc1C(=O)NCCN1CCC1 [38(a), N-(2-(Azetidin-1-yl)ethyl)-5-(tert-butyl)-2-methoxy-3-(3-(4-((2-(phenylamino)pyridin-4-yl)oxy)naphthalen-1-yl)ureido)benzamide] | 5.0 | 10.7 | 19.0 | 3.8 | 86.2 |  |  |
| 31 | 2220 | 7.3 | 27 | 12 | COc1cc(CO)cc(Nc2cc(Oc3ccc(NC(=O)Nc4cc(C(C)(C)C)cc(P(C)(C)=O)c4OC)c4ccccc34)ccn2)c1 [38(c), 1-(5-(tert-Butyl)-3-(dimethylphosphoryl)-2-methoxyphenyl)-3-(4-((2-((3-(hydroxymethyl)-5-methoxyphenyl)amino)pyridin-4-yl)oxy)naphthalen-1-yl)urea] | 3.5 | 16.0 | 28.5 | 1.7 | 90.2 |  |  |
| > 1600 | 1980 | 15.9 | 5 | 522 | COc1c(NC(=O)Nc2ccc(Oc3ccnc(NCc4ccccn4)c3)c3ccccc23)cc(C(C)(C)C)cc1P(C)(C)=O [38(e), 1-(5-(tert-Butyl)-3-(dimethylphosphoryl)-2-methoxyphenyl)-3-(4-((2-((pyridin-2-ylmethyl)amino)pyridin-4-yl)oxy)naphthalen-1-yl)urea] | 2.0 | 30.5 | 32.5 | 2.9 | 41.6 |  |  |
|  | > 9380 | 7.3 |  |  | COCCOCCOCCOc1cc(Nc2nccc(Oc3ccc(NC(=O)Nc4cc(C(C)(C)C)cc(OS(C)(=O)=O)c4OC)c4ccccc34)n2)cc(OC)c1 [Example 5, 5-(tert-Butyl)-2-methoxy-3-(3-(4-((2-((3-methoxy-5-(2-(2-(2-methoxyethoxy)ethoxy)-ethoxy)phenyl)amino)pyrimidin-4-yl)oxy)naphthalen-1-yl)ureido)phenyl methanesulfonate] |  |  |  | 8.7 |  |  |  |
| 190 | 1220 |  | 17 | 15 | COc1cc(Nc2cc(Oc3ccc(NC(=O)Nc4cc(C(C)(C)C)cc(CC(N)=O)c4OC)c4ccccc34)ccn2)cc(C(=O)NCCN2CC[S+]([O-])CC2)c1 [Example 65, 3-((4-((4-(3-(3-(2-Amino-2-oxoethyl)-5-(tert-butyl)-2-methoxyphenyl)ureido)naphthalen-1-yl)oxy)pyridin-2-yl)amino)-5-methoxy-N-(2-(1-oxidothiomorpholino)ethyl)benzamide] |  |  |  | 4.3 | 8.7 | 31.3 | 7.6 |
| 918 | 4280 |  | 222 | 54 | COc1cc(Nc2cc(Oc3ccc(NC(=O)Nc4cc(C(C)(C)C)cc(OC(CO)CO)c4OC)c4ccccc34)ccn2)cc(C(N)=O)c1 [Example 66, 3-((4-((4-(3-(5-(tert-Butyl)-3-((1,3-dihydroxypropan-2-yl)oxy)-2-methoxyphenyl)ureido)naphthalen-1-yl)oxy)pyridin-2-yl)amino)-5-methoxybenzamide] |  |  |  | 2.2 | 46.4 | 60.9 | 7.7 |
| 143 | 1320 |  | 13 | 18 | COc1cc(Nc2cc(Oc3ccc(NC(=O)Nc4cc(C(C)(C)C)cc(CC(N)=O)c4OC)c4ccccc34)ccn2)cc(C(=O)NCCCN2CC[S+]([O-])CC2)c1 [Example 68, 3-((4-((4-(3-(3-(2-Amino-2-oxoethyl)-5-(tert-butyl)-2-methoxyphenyl)ureido)naphthalen-1-yl)oxy)pyridin-2-yl)amino)-5-methoxy-N-(3-(1-oxidothiomorpholino)propyl)benzamide] |  |  |  | 3.8 | -0.6 | 40.6 | 8 |
| 124 | 1960 |  | 16 | 12 | COc1cc(Nc2cc(Oc3ccc(NC(=O)Nc4cc(C(C)(C)C)cc([S+](C)[O-])c4OC)c4ccccc34)ccn2)cc(C(=O)NCCN2CC[S+]([O-])CC2)c1 (stereo not drawn) [Example 69, 3-((4-((4-(3-(5-(tert-Butyl)-2-methoxy-3-(methylsulfinyl)phenyl)ureido)naphthalen-1-yl)oxy)pyridin-2-yl)amino)-5-methoxy-N-(2-(1-oxidothiomorpholino)ethyl)benzamide] |  |  |  | 2.3 | 8.9 | 75.7 | 7.6 |
| 26 | 1200 |  | 25 | 14 | COc1cc(Nc2cc(Oc3ccc(NC(=O)Nc4cc(C(C)(C)C)cc(CNC(C)=O)c4OC)c4ccccc34)ccn2)cc(C(=O)NCCN2CC[S+]([O-])CC2)c1 [Example 71, 3-((4-((4-(3-(3-(Acetamidomethyl)-5-(tert-butyl)-2-methoxyphenyl)ureido)naphthalen-1-yl)oxy)pyridin-2-yl)amino)-5-methoxy-N-(2-(1-oxidothiomorpholino)ethyl)benzamide] |  |  |  | 3.4 | 48.3 | 33.7 | 7.2 |
| > 1100 | 2320 |  | 134 | 78 | COc1cc(Nc2cc(Oc3ccc(NC(=O)Nc4cc(C(C)(C)C)cc(P(C)(C)=O)c4OC)c4ccccc34)ccn2)cc(S(=O)(=O)N(C)CCN2CCOCC2)c1 [Example 75, 3-((4-((4-(3-(5-(tert-Butyl)-3-(dimethylphosphoryl)-2-methoxyphenyl)ureido)naphthalen-1-yl)oxy)pyridin-2-yl)amino)-5-methoxy-N-methyl-N-(2-morpholinoethyl)benzenesulfonamide] |  |  |  | 1.6 | 13.9 | 115 | 3 |
